Source: patent US4731363A, “Thromboxane synthase inhibitors as insulin lowering agents and antiobesity agents” (priority 1986, dated 1988)
Values joined by “and” are separate entries in the source; they are usually repeats but may differ in a detail not shown here. Identical values can stand only once. Counter-ions that a name gives are not always drawn. Like-named read-outs stand apart in the source and are kept apart here.

What was measured:
[1] = biological target: T1, thromboxane synthase (Guinea Pig Lung Microsomes) (Cavia porcellus, UniProt H0UT36); test: biochemical
T1 construct: The lungs were removed, freed of trachea and the majority of blood removed by rinsing the lungs with buffer; from tissue; host or cells: lungs of male guinea pigs (microsomes, 110,000 g pellet)
T1 sequence (H0UT36 entry or part of it): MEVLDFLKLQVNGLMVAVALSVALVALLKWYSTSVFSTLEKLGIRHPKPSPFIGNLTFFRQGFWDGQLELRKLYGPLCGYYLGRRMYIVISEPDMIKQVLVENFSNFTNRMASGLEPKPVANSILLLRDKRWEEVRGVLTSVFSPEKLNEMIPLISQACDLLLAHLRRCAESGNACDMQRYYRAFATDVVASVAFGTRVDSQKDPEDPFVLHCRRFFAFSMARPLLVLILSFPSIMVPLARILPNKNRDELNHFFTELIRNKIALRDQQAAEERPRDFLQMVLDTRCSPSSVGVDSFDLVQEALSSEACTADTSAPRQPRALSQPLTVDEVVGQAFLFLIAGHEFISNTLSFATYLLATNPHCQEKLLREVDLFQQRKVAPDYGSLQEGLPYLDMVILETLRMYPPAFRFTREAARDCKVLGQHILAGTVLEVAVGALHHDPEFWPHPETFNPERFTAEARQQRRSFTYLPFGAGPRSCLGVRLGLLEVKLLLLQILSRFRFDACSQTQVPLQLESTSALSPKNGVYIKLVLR
Experimental: In said assay procedure, microsomes from guinea pig lung or human platelets are added to an endoperoxide intermediate in prostaglandin biosynthesis and the inhibitor in phosphate buffer solution followed by incubation, extraction and determination of the extent of thromboxane synthase inhibition by TLC with radiochromatographic profile analysis. […]
Isolation of Guinea Pig Lung Microsomes
Four male guinea pigs (.congruent.500 g each) were sacrificed by spinal dislocation. The lungs were removed, freed of trachea and the majority of blood removed by rinsing the lungs with buffer (0.1M phosphate pH 7.5) via the pulmonary artery. The lung tissue (18.3 g total wet wt.), was then minced, suspended in three volumes of buffer and homogenized using, initially, a Brinkmann polytron homogenizer and, finally, a glass-teflon tissue grinder. The homogenate was centrifuged at 12,000 g for 1 hr. and the resultant supernatant recentrifuged at 110,000 g for 1 hr. The 110,000 g pellet was taken up in 10 ml of buffer, divided into 5×2 ml aliquots and stored at -70° until use.
(§1) Low specific activity PGH2 (3.3 μCi/μmole) was obtained from Dr. W. E. M. Lands of the University of Michigan. PGH2 of higher specific activity (16.0 μCi/μmole) was purchased from Ran Biochemicals, Tel-Aviv, Israel.
(§2) The inhibitors tested were prepared as solutions (1-10 mg/ml) in 95% ethanol.
(§3) Assay for Thromboxane Synthase
(§4) To a 12×75 mm tube containing [1-^14 C] PGH2 (2 μg, 0.01 μCi or 0.05 μCi) and inhibitor (1 mM final assay concentration, in 10 μl of ethanol) in 225 μl of phosphate buffer (0.1M, pH 7.5), was added to an aliquot of guinea pig lung microsomes (25 μl, containing 400 μg protein) or an aliquot of human platelet microsomes (25 μl, containing .congruent.[…] protein). The solution was incubated in a 22° water bath for 2 min.; ether (1 ml) and citric acid (25 μMoles) were added, and the tube plunged into an acetone-dry ice bath. The ether extract was transferred to a 1.0 ml Reacti-vial, and the volume reduced under nitrogen to .congruent.50 μl.
(§5) The extract was applied to an I.T.L.C., type SG, glass fiber sheet (Gelman Instrument Co., Ann Arbor, Mich.) and developed in isooctane; methyl ethyl ketone: acetic acid (100:19:1 or 100:9:1) (19). The sheets were air dried and scanned using a Berthold LB 2760 Radiochromatographic Scanner. In certain cases, based on the radiochromatographic profile obtained, the sheets were cut, the appropriate regions placed in scintillation vials, 10 ml of LSC cocktail (Yorktown Research, S. Hackensack, NJ) added, and the relative cpm determined.

[2] = biological target: T2, thromboxane synthase (Human Platelet Microsomes) (Homo sapiens, UniProt P24557); test: Thromboxane synthase inhibition, human platelet microsomes; type: biochemical
T2 construct: Platelets were obtained from 320 ml of whole blood and resuspended in 5.0 ml of Krebs-Hensleit buffer; from tissue; host or cells: human platelets (microsomes, 110,000 g pellet)
T2 sequence (P24557 1-533): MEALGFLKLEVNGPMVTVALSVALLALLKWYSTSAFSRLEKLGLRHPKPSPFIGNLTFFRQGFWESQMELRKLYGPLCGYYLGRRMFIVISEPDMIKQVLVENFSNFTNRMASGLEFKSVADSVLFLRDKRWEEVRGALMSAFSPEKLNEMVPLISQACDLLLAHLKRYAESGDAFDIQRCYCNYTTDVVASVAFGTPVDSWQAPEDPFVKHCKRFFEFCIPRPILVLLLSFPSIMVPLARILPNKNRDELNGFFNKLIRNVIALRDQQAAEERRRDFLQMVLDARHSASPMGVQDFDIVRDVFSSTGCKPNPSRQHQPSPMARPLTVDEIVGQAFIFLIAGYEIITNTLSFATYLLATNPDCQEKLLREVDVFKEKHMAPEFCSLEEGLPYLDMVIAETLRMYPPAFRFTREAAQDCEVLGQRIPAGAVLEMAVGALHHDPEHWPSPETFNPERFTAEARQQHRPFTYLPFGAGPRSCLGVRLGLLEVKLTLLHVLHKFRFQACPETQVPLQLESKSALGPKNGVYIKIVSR
Experimental: In said assay procedure, microsomes from guinea pig lung or human platelets are added to an endoperoxide intermediate in prostaglandin biosynthesis and the inhibitor in phosphate buffer solution followed by incubation, extraction and determination of the extent of thromboxane synthase inhibition by TLC with radiochromatographic profile analysis.
Determination of Inhibition of Thromboxane Synthase Activity Isolation of Human Platelet Microsomes
Platelets were obtained from 320 ml of whole blood and resuspended in 5.0 ml of Krebs-Hensleit buffer (CA^+2 free). After three consecutive freeze-thawing cycles, homogenization and centrifugation at 12,000 g for 45 min., the 12,000 supernatant was recentrifuged at 110,000 g for 60 min. The resultant pellet was resuspended in phosphate buffer (0.5 ml, 0.1M, pH 7.5) and stored at -70° until use.
as §1, §2, §3, §4, §5

[3] = IC50, enzyme source G = Guinea Pig Lung Microsomes
[4] = enzyme source G = Guinea Pig Lung Microsomes, read-out: IC50
[5] = enzyme source H = Human Platelet Microsomes, read-out: IC50
[6] = IC50, enzyme source H = Human Platelet Microsomes

| SMILES | IC50 [1, 4] | IC50 [2, 5] | other results |
| --- | --- | --- | --- |
| O=C1C(CC[S+]([O-])c2ccccc2)C(=O)N(c2ccccc2)N1c1ccccc1 (centres unmarked) [1,2-diphenyl-4-[2-[phenylsulfinyl]ethyl]-3,5-pyrazo-lidinedione, reference compound] |  |  | IC50 [1, 3]: ~1000 µM |
| COc1ccc2c(c1)c(CC(=O)O)c(C)n2C(=O)c1ccc(Cl)cc1 [1-(4-chlorobenzoyl)-5-methoxy-2-methyl-1H--indole-3-acetic acid, reference compound] | > 100 µM and < 1000 µM |  |  |
| CCOc1ccc(-n2ccnc2)cc1 [1-(4-ethoxyphenyl)-1H--imidazole] |  | ~10 µM |  |
| COc1ccc(-n2ccnc2)cc1 [1-(4-methoxyphenyl)-1H--imidazole] |  | 10 to 100 µM |  |
| O=[N+]([O-])c1ccc(-n2ccnc2)cc1 [1-(4-nitrophenyl)-1H--imidazole] | > 100 µM and < 1000 µM |  |  |
| OC[C@H]1O[C@@H](n2ccnc2)[C@H](O)[C@@H](O)[C@@H]1O [1-(beta-D-glucopyranosyl)-1H--imidazole] |  | 10 to 100 µM |  |
| c1ccc(Cn2ccnc2)cc1 [1-(phenylmethyl)-1H--imidazole] |  |  | IC50 [2, 6]: 10 to 100 µM |
| O=[N+]([O-])c1ccc(-n2ccnc2)c([N+](=O)[O-])c1 [1-[2,4-dinitrophenyl]1H--imidazole] |  |  | IC50 [1, 3]: > 100 µM and < 1000 µM |
| Clc1ccccc1C(c1ccccc1)(c1ccccc1)n1ccnc1 [1-[(2-chlorophenyl)diphenylmethyl]-1H--imidazole, reference compound] |  |  | IC50 [2, 6]: 10 to 100 µM |
| CC(=O)n1ccnc1 [1-acetyl-1H--imidazole] |  | ~1000 µM |  |
| CCCCn1ccnc1 [1-butyl-1H--imidazole] |  | ~10 µM |  |
| CCn1ccnc1 [1-ethyl-1H--imidazole] |  |  | IC50 [1, 3]: > 1000 µM |
| Cn1ccnc1 [1-methyl-1H--imidazole] | > 1000 µM |  |  |
| O=[N+]([O-])c1c[nH]cn1 [1H-- 4-nitroimidazole] | > 1000 µM |  |  |
| CC(C)(C(=O)c1cccnc1)c1cccnc1 [2-methyl-1,2-di-3-pyridyl-1-propanone tartrate [1:2], reference compound] |  | > 100 µM and < 1000 µM |  |
| Oc1cccc(-n2ccnc2)c1 [3-(1H--imidazol-1-yl)phenol] |  | 1 to 10 µM |  |
| COC(=O)C=Cc1c[nH]cn1 [3-(1H--imidazole-4-yl)-2-propenoic acid methyl ester] | > 100 µM and < 1000 µM |  |  |
| O=C1c2ccccc2S(=O)(=O)c2cc(-c3nnn[nH]3)ccc21 [3-(1H-tetrazol-5-yl)-9H-thioxathen-9-one s.s dioxide, reference compound] | > 100 µM and < 1000 µM |  |  |
| c1ccc(-c2ccncn2)cc1 [4-phenylpyrimidine] | ~100 µM |  |  |
| Nc1cncc(C(=O)O)c1 [5-amino-3-pyridinecarboxylic acid] |  |  | IC50 [1, 3]: > 1000 µM |
| CC(C)Oc1ccc2oc3ccc(C(=O)O)cc3c(=O)c2c1 [7-(1-methylethoxy)-9-oxo-9H-xanthene-2-carboxylic acid] | > 1000 µM | > 1000 µM |  |
| Cc1ccc2c(-c3ccccc3)nc(=O)n(C(C)C)c2c1 [7-methyl-1-(1-methylethyl)-4-phenyl-2(1H)-quinazolinone, reference compound] | > 1000 µM |  |  |
| CCOC(=O)C(=O)Cc1ccncn1 [Alpha-oxo-4-pyrimidinepropanoic acid ethyl ester] |  | > 100 µM and < 1000 µM |  |
| N[C@@H]1C(=O)N2C(C(=O)O)=C(CSc3ccncn3)CS[C@H]12 [[6R--(6α,7β)]-2-carboxy-8-oxo-3-[(4-pyrimidinylthio)-methyl]5-thia-1-azabicyclo-[4.2.0]oct-2-en-7-aminum hydroxide inner salt] |  | > 100 µM and < 1000 µM |  |
| O=C(NN=Cc1c(O)ccc2ccccc12)c1cccnc1 [[(2-hydroxy-1-naphthalenyl)methylene]hydrazide 3-pyridinecarboxylic acid] |  | ~100 µM |  |
